# In PMC9321663, “The DevTox Germ Layer Reporter Platform: An Assay Adaptation of the Human Pluripotent Stem Cell Test” (Toxics, 2022):
# Like-named read-outs stand apart in the source and are kept apart here.
# Legend:
# [1] = system: SOX17 (endoderm marker) in RUES2-GLR cells; experiment: DevTox GLR-Endo assay: decrease in percent SOX17-positive cells (AEID 3094, Sox17_dn); conditions: for Hit Call: Table S2, SOX17-positive cells, cutoff 3*bmad; for DevTox ACC: Table S2, percent SOX17-positive cells; for DevTox-GLR Endo ACC: activity concentration at cutoff, SOX17-positive cells; for HIT−CALL: tcpl plot AEID3094, COFF 20.3; for effect on SOX17-positive cells (in words): 48 h exposure during directed endoderm differentiation; for hit call designation (in words): DevTox GLR-Endo prediction against developmental toxicant classification
# How it was run: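 Readouts are loss of SOX17-positive fraction and reduced cell number in endoderm-differentiating RUES2-GLR cells after 48 h of chemical exposure. Controls: undifferentiated and differentiated cells, 0.2% DMSO, and 1 µM SB431542; at least four biological replicates.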
# [2] = DevTox GLR-Endo assay: decrease in total cell count, cytotoxicity (AEID 3098, CellCount_dn); conditions: human, RUES2-GLR cells under directed endoderm differentiation
# RUES2-GLR cells = experiment: as above; conditions: for Emax: Homo sapiens, read-out: Cell Count % Max Inhibition
# [3] = system: SOX17 (endoderm marker) in RUES2-GLR cells; experiment: DevTox GLR-Endo assay: increase in percent SOX17-positive cells (AEID 3093, Sox17_up); format: cell-based, human; conditions: for Emax: Homo sapiens; for HIT−CALL: tcpl plot AEID3093, COFF 20.3
# Procedure: (§1) The total test chemical incubation period was 48 h.
# (§2) (Supplementary Materials).
# [4] = system: BRA (mesoderm marker) in RUES2-GLR cells; experiment: DevTox GLR-Endo assay: increase in percent BRA-positive cells (AEID 3096, Bra_up); format: cell-based, human; conditions: for HIT−CALL: tcpl plot AEID3096, COFF 0.774; for MAX_MEAN: tcpl plot AEID3096, maximum mean response; for MAX_MED: tcpl plot AEID3096, maximum median response
# Procedure: as §1, §2
# [5] = system: SOX17 in H9 human ESC line; conditions: SOX17 half-maximal inhibition concentration; read-out: hPST IC50; cited from earlier work
# H9 human ESC line = conditions: cited from earlier work
# [6] = system: o/c ratio in H9 embryonic stem cells; conditions: Teratogen Index, o/c ratio; cited from earlier work
# [7] = cited from earlier work; for Development Toxicant Classification: Table S2; for Classification: developmental toxicant classification (Teratogen / Non-Teratogen) of reference and training chemicals, ref DOI per chemical: 10.1093/toxsci/kft239, 10.1093/toxsci/kfaa014, 10.1177/026119290203000204, 10.1038/s41598-020-59542-x; for DT Class.: developmental toxicant classification
# [8] = system: SOX2 (ectoderm and pluripotency marker) in RUES2-GLR cells; experiment: DevTox GLR-Endo assay: increase in percent SOX2-positive cells (AEID 3095, Sox2_up); conditions: for MAX_MEAN: tcpl plot AEID3095, maximum mean response; for MAX_MED: tcpl plot AEID3095, maximum median response;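 on all read-outs here: cells exposed to test chemicals for 48 h in total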
# Procedure: RUES2-GLR cells were seeded 24 h prior to differentiation initiation into vitronectin-coated 384-well CellCarrier Ultra plates (10.6 mm^2/well) (Perkin Elmer, Waltham, MA, USA). Vitronectin (0.5 µg/cm^2)-coated plates were prepared and stored at 4 °C, wrapped in parafilm, for less than seven days and incubated at room temperature for one hour prior to cell seeding. […] Cells were dispensed into 20 µL coating solution using a Certus FLEX Micro Dispenser (Fritz Gyger, Gwatt, Switzerland) with a 0.45 µm valve to a final volume of 100 µL and density of 2.8 × 10^3 cells per well.
# Following a 24 h post-seeding incubation period (Time = 0 h) (Figure 3A), directed endoderm differentiation was initiated with the PSC Definitive Endoderm Induction kit (Gibco, Waltham, MA, USA). […] A target dilution series (0.002–200 µM) was generated by dispensing variable nanoliter volumes of test chemical and backfilling with a complementary volume of DMSO using Echo Cherry Pick software (v.1.6.2). Wells were backfilled with 50 µL of induction medium using a Certus FLEX Micro Dispenser with 0.45 µm valves. Test compound treatment plates were mixed on a Multi-Microplate Genie mixer at 700 rpm for 10 min and subsequently incubated for two hours in a humidified atmosphere at 37 °C with 5% CO2. Each chemical treatment (0 h–Medium A; 24 h–Medium B) were prepared the day of treatment. At 0 h, cell culture medium was aspirated from the assay plate at a rate of 1 µL/s and 40 µL of Medium A ± test chemical applied using a CyBio FeliX automated liquid handler (Analytik Jena, Jena, Germany). At 24 h, conditioned cell culture medium was aspirated and 40 µL of Medium B ± test chemical was applied. At 48 h, cells were prepared for high-content image acquisition by fixation and nuclear staining. The total test chemical incubation period was 48 h. For fixation, a 4% paraformaldehyde (PFA) solution was achieved by adding 40 µL of 8% PFA directly to cell culture medium using a CyBio FeliX liquid handler. […] Following an additional 30 min incubation period at room temperature, staining solution was aspirated, 50 µL of DPBS was added, and plate sealed with MicroAmp Optical Adhesive Film (Applied Biosystems, Waltham, MA, USA).
# Images were acquired within 12 h post-fixation using an Opera Phenix High-Content Screening System (Perkin Elmer, Waltham, MA, USA). […] Cell identification and mean biomarker fluorescent intensities were calculated using Harmony image analysis software (Perkin Elmer, Waltham, MA, USA). Cell nuclei were identified using the object classifying algorithm C of the software with border objects excluded using the “Remove Border Objects” feature. Mean cell biomarker intensity statistics were gathered from each object and exported for further analysis using a custom script in Python version 3.7.4 [61] […] For each plate, pluripotent-negative control wells were used to establish baseline intensity values and a cutoff threshold for determining SOX17 and BRA biomarker-positive cells. Endoderm differentiated positive control wells were used to establish baseline intensity values and a cutoff threshold for SOX2-positive cells. Cells with a mean intensity five times the baseline median absolute deviation (5*bmad) above the median cell intensity for plate-based control population technical replicates were considered positive. Well-based cell counts, reflected by the sum of total counted objects from all fields, were used to calculate the percent responders for each respective biomarker and evaluate cytotoxicity. Well-level results were exported for data modeling in the ToxCast Pipeline.
# The ToxCast Pipeline R package (tcpl v.2.0.2) was used to normalize, fit, and qualify concentration-response screening data [63].
# H9 embryonic stem cells = conditions: concentration at cell viability cutoff; cited from earlier work
# [9] = Homo sapiens, 48 h, read-out: DevTox-GLR Endo AC50 (µM), SOX17 half-maximal activity concentration, 48 h exposure
# [10] = Homo sapiens, read-out: DevTox % Max Inhibition
# [11] = Homo sapiens, read-out: MAX_MEAN
# [12] = Homo sapiens, read-out: MAX_MED
# [13] = Homo sapiens, read-out: ga (winning model), tcpl plot AEID3094, gain parameter of winning curve fit (log concentration, µM axis), hit calls only (converted)
# [14] = Homo sapiens, read-out: tp (winning model)
# [15] = tcpl plot AEID3093, maximum mean response, read-out: MAX_MEAN
# [16] = tcpl plot AEID3093, maximum median response, read-out: MAX_MED
# [17] = cytotoxicity half-maximal concentration
# [18] = chemicals common with quickPredict
SMILES,"Emax [1, 10] [%]","Emax [1, 11] [%]","Emax [1, 12] [%]",Hit Call [1],DevTox ACC ([1]; 48 h exposure) [µM],HIT−CALL [1],Emax (RUES2-GLR cells) [%],"Cell Count ACC (RUES2-GLR cells; human, 48 h) [µM]","Emax [3, 15] [%]","Emax [3, 16] [%]",HIT−CALL [3],HIT−CALL [4],MAX_MEAN [4] [Percent Activity],MAX_MED [4] [Percent Activity],quickPredict TI [6] [µM],Development Toxicant Classification [7],Classification [7],"DT Class. [7, 18]",MAX_MEAN [8] [Percent Activity],MAX_MED [8] [Percent Activity],other results
NC(=O)N1c2ccccc2C=Cc2ccccc21 [Carbamazepine],52.2,52.1,52.2,Positive,64.024,1,39.1,57.7753,12.3,12.1,0,1,1.14,1.04,2.29,Positive,Teratogen,Pos,0.534,0.576,"AC50 [1, 9]: 103 µM; AC50 [1, 13]: 102 µM; Emax [1, 14]: 65.3%; DevTox-GLR Endo ACC ([1]; 48 h exposure): 64.02 µM; CC50 at 48 h [2]: 137 µM; DevTox-GLR Endo CC (RUES2-GLR cells; human, 48 h): 57.78 µM; IC50 [5]: 0.08 µM; hPST TC50 (H9 human ESC line; [17]): 0.19 µM; hPST TC50 (H9 human ESC line; hPST cytotoxicity): 0.19 µM; DT Class. ([7]; chemicals common with hPST): Pos"
O=C1CCC(N2C(=O)c3ccccc3C2=O)C(=O)N1 (stereo not drawn) [Thalidomide],79.1,78,79.1,Positive,0.2523,1,19.5,>200,4.62,3.35,0,0,0.925,0.968,1.27,Positive,Teratogen,Pos,0.64,0.473,"effect on SOX17-positive cells (in words) [1]: significant reductions in the SOX17-positive sub-population; effect on SOX17-positive cells (in words) ([1]; listed as thalidomide): concentration-dependent loss of SOX17-positive cells; IC50 ([1]; Homo sapiens, 48 h): 1.71 µM; AC50 [1, 9]: 1.64 µM; AC50 [1, 13]: 1.64 µM; Emax [1, 14]: 81.4%; DevTox-GLR Endo ACC ([1]; 48 h exposure): 0.25 µM; % Max Inhibition ([1]; maximum inhibition of SOX17-positive cells, reference chemical testing, 48 h exposure): 58%; CC50 at 48 h [2]: > 200 µM; effect on cell counts (in words) (RUES2-GLR cells): cell counts remained constant; IC50 [5]: 0.5 µM; hPST TC50 (H9 human ESC line; [17]): >200 µM; hPST TC50 (H9 human ESC line; hPST cytotoxicity): > 200 µM; DT Class. ([7]; chemicals common with hPST): Pos; Developmental Toxicant Classification ([7]; reference chemicals): Positive"
C[C@@H]1C[C@H]2[C@@H]3CCC4=CC(=O)C=C[C@]4(C)[C@@]3(F)[C@@H](O)C[C@]2(C)[C@@]1(O)C(=O)CO [Dexamethasone],,,,Negative,>200,1,,,,,0,0,0.923,0.979,37.7,Positive,Teratogen,Pos,0.622,0.482,"hit call designation (in words) [1]: borderline calls; ga (winning model) ([1]; tcpl plot AEID3094, gain parameter of winning curve fit (log concentration, µM axis), hit calls only): −6.88; MAX_MEAN ([1]; tcpl plot AEID3094, maximum mean response): 20.7 Percent Activity; tp (winning model) ([1]; tcpl plot AEID3094, top of winning curve fit (Hill or gain-loss), hit calls only): 41.8; Cell Count ACC (RUES2-GLR cells): 13.83 µM; DevTox-GLR Endo CC (RUES2-GLR cells): 13.83 µM; effect on cell count (in words) (RUES2-GLR cells): significant cell loss that did not impact SOX17-positive populations; MAX_MEAN ([3]; tcpl plot AEID3093, maximum mean response): −0.0942 Percent Activity; MAX_MED ([3]; tcpl plot AEID3093, maximum median response): 0.457 Percent Activity"
CC(C)(c1ccc(O)cc1)c1ccc(O)cc1 [Bisphenol A],102,102,102,Positive,31.7467,1,94.4,21.1157,9.9,10.7,0,,,,,Positive,Teratogen,Pos,4.11,3.32,"AC50 [1, 13]: 38.9 µM; Emax [1, 14]: 102%; DevTox-GLR Endo ACC ([1]; 48 h exposure): 31.75 µM; DevTox-GLR Endo CC (RUES2-GLR cells; human, 48 h): 21.12 µM; quickPredict CV (H9 embryonic stem cells): 39.4 µM; AC50 ([8]; Homo sapiens, read-out: ga (winning model)): 38 µM; Emax [8, 14]: 3.24%"
Cc1cn([C@H]2C=C[C@@H](CO)O2)c(=O)[nH]c1=O [Stavudine],11.4,13.5,11.4,Negative,>200,0,23.9,90.2805,8.07,10.6,0,1,1.06,1.06,32.5,Positive,Teratogen,Pos,1.54,0.512,"hit call designation (in words) [1]: false negative; Emax ([1]; Homo sapiens, read-out: maximum observed effect level class (% max inhibition)): 0 to 20%; effect on cell count (in words) (RUES2-GLR cells): significant decreases in cell count; DevTox-GLR Endo CC (RUES2-GLR cells; human, 48 h): 90.28 µM; effect on cell count (in words) (RUES2-GLR cells; human, 48 h): significant cell loss that did not impact SOX17-positive populations"
